Values of other authors in patent US8980874B2, “Method and composition for treating diabetic ketoacidosis” (Midwestern University, priority 2009, dated 2015).

Columns and labels:
BBB permeability = conditions: repeated intracisternal administration of ET-1 in dogs and rats; cited from earlier work
[1] = system: rat model of embolic stroke; conditions: rat model of embolic stroke where rtPA was used; cited from earlier work

CC1(C)CC[C@]2(C(=O)[O-])CC[C@]3(COC(=O)/C=C/c4cc([O-])ccc4NC(=O)/C=C/C(=O)O)C(=CC[C@@H]4[C@@]5(C)CCC(=O)C(C)(C)[C@@H]5CC[C@]43C)[C@@H]2C1.[Na+].[Na+] [S-0139]
effect on ET-1 induced increase in BBB permeability (BBB permeability): blocked
neuroprotection / rtPA evoked disruption of BBB [1]: provided neuroprotection by suppressing rtPA evoked disruption of BBB
